{"source": "paper PMC2892419", "about": "(Biochemistry, 2010)", "key": {"[1]": {"tested_on": "Sgx9236b", "assay": "direct UV assay of deamination, […] nm", "format": "biochemical, Unknown prokaryotic organism (Sargasso Sea metagenome)", "conditions": "pH 8.5, 30 °C"}, "[2]": {"tested_on": "Sgx9236b", "assay": "direct UV assay of deamination, […] nm", "format": "biochemical, Unknown prokaryotic organism (Sargasso Sea metagenome)", "conditions": "pH 8.5, 30 °C", "remark": "listed apart in the source"}}, "data": [{"compound": "Nc1nc2[nH]c(=O)cnc2c(=O)[nH]1", "note": "[I, isoxanthopterin]", "values": [{"measurement": "Km", "setting": "[1]", "value": "50 ± 10", "unit": "µM"}]}, {"compound": "Nc1nc2ncc(C(=O)O)nc2c(=O)[nH]1", "note": "[II, pterin-6-carboxylate]", "values": [{"measurement": "Km", "setting": "[2]", "value": "90 ± 30", "unit": "µM"}]}]}
